# Assay results: publication PMC9229919, “4-Aminoquinoline-Based Adamantanes as Potential Anticholinesterase Agents in Symptomatic Treatment of Alzheimer’s Disease” (Pharmaceutics, 2022)
# Where two headings read alike, the source gives them in different places.
# What was measured:
# [1] = Reverse-phase thin-layer chromatographic lipophilicity (RF, RM0); assay type: physicochemical; conditions: for RM0: intercept of RM = RM0 + bC; for b: slope of RM = RM0 + bC; for RF, Methanol/Water/Hydrochloric acid (conc.), mobile phase I: I = 90%MeOH/5%H2O/5%HCl; for RF, Dioxane/Water/Hydrochloric acid (conc.), mobile phase II: II = 80%Dioxane/15%H2O/5%HCl; for RF, Methanol/Water/Hydrochloric acid (conc.), mobile phase II: II = 85%MeOH/10%H2O/5%HCl; for RF, Acetone/Water/Hydrochloric acid (conc.), mobile phase III: III = 70%AC/25%H2O/5%HCl; for RF, Dioxane/Water/Hydrochloric acid (conc.), mobile phase III: III = 70%Dioxane/25%H2O/5%HCl; for RF, Methanol/Water/Hydrochloric acid (conc.), mobile phase III: III = 80%MeOH/15%H2O/5%HCl; for RF, Dioxane/Water/Hydrochloric acid (conc.), mobile phase IV: IV = 60%Dioxane/35%H2O/5%HCl; for RF, Acetone/Water/Hydrochloric acid (conc.), mobile phase IV: IV = 65%AC/30%H2O/5%HCl; for RF, Methanol/Water/Hydrochloric acid (conc.), mobile phase IV: IV = 75%MeOH/20%H2O/5%HCl; for RF, Acetone/Water/Hydrochloric acid (conc.), mobile phase IX: IX = 40%AC/55%H2O/5%HCl; for RF, Methanol/Water/Hydrochloric acid (conc.), mobile phase IX: IX = 50%MeOH/45%H2O/5%HCl; for RF, Dioxane/Water/Hydrochloric acid (conc.), mobile phase V: V = 50%Dioxane/45%H2O/5%HCl; for RF, Acetone/Water/Hydrochloric acid (conc.), mobile phase V: V = 60%AC/35%H2O/5%HCl; for RF, Methanol/Water/Hydrochloric acid (conc.), mobile phase V: V = 70%MeOH/25%H2O/5%HCl; for RF, Dioxane/Water/Hydrochloric acid (conc.), mobile phase VI: VI = 40%Dioxane/55%H2O/5%HCl; for RF, Acetone/Water/Hydrochloric acid (conc.), mobile phase VI: VI = 55%AC/40%H2O/5%HCl; for RF, Methanol/Water/Hydrochloric acid (conc.), mobile phase VI: VI = 65%MeOH/30%H2O/5%HCl; for RF, Acetone/Water/Hydrochloric acid (conc.), mobile phase VII: VII = 50%AC/45%H2O/5%HCl; for RF, Methanol/Water/Hydrochloric acid (conc.), mobile phase VII: VII = 60%MeOH/35%H2O/5%HCl; for RF, Acetone/Water/Hydrochloric acid (conc.), mobile phase VIII: VIII = 45%AC/50%H2O/5%HCl; for RF, Methanol/Water/Hydrochloric acid (conc.), mobile phase VIII: VIII = 55%MeOH/40%H2O/5%HCl
# Method in brief: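 Reverse-phase TLC using mobile phases of methanol, acetone or dioxane with water and hydrochloric acid. Methanol varied in 10% steps; development distance 4.5 cm, ambient temperature (22±2 °C). RF measured and RM0 derived from retention.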
# [2] = molecular target: T1, recombinant human AChE (Homo sapiens, UniProt P22303); test: biochemical; assay type: biochemical; conditions: for IS: IS = Ki(BChE)/Ki(AChE), IS > 1 selective to AChE
# T1 construct: gift of Dr Florian Nachon (Armed Forces Biomedical Research Institute, Brétigny-sur-Orge, France)
# Method in brief: (§1)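 Modified Ellman assay with acetylthiocholine and DTNB in 0.1 M sodium phosphate pH 7.4 (enzymes diluted with 0.1% BSA), ≤0.2% DMSO, 25 °C. At least three inhibitor concentrations per substrate level; Ki,app from Hunter–Downs equation, Ki from y-intercept and inhibition type from Ki,app vs [S].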
# [3] = molecular target: T2, purified human BChE (Homo sapiens, UniProt P06276); test: biochemical; assay type: biochemical
# T2 construct: possibly also a gift of Dr Florian Nachon (the sentence is ambiguous)
# Method in brief: as §1
# [4] = Ferric reducing antioxidant power (FRAP) assay; conditions: mean ± standard error of three experiments;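 further: expressed as µM Fe2+ equivalents from an FeSO4·7H2O standard curve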
# Method in brief: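 Compounds at 10 and 100 µM were mixed with FRAP reagent (300 mM acetate buffer pH 3.6, TPTZ in HCl, FeCl3, 10:1:1) and incubated 60 min at 37 °C. Fe^2+-TPTZ formation read at 593 nm against a blank. Values derived from an Fe2SO4·7H2O standard curve, three independent experiments.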
# [5] = Acetone/Water/Hydrochloric acid (conc.)
# [6] = Dioxane/Water/Hydrochloric acid (conc.)
# [7] = Methanol/Water/Hydrochloric acid (conc.)
# [8] = ± standard error, 25 °C, ATCh substrate, read-out: Ki AChE
# [9] = ± standard error, 25 °C, ATCh substrate, read-out: Ki BChE
# [10] = log (Ki/µM AChE), read-out: Y Measured 1 log(ki)Ache (converted)
# T1 sequence (P22303 32-614): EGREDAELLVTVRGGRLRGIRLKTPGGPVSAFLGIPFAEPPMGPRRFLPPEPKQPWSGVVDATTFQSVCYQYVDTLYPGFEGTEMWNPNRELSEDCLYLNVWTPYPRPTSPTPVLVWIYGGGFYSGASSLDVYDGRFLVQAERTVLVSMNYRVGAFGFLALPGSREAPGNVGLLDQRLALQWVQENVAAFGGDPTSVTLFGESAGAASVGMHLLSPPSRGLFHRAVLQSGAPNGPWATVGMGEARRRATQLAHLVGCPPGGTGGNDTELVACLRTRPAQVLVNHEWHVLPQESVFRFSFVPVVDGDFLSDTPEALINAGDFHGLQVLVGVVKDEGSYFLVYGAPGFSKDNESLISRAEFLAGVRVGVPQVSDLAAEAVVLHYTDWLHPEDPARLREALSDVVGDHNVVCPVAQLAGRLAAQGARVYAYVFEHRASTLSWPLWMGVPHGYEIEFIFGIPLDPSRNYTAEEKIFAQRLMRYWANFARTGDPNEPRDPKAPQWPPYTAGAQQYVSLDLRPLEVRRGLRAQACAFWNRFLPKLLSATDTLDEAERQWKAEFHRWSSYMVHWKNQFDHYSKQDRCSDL
# T2 sequence (P06276 29-602): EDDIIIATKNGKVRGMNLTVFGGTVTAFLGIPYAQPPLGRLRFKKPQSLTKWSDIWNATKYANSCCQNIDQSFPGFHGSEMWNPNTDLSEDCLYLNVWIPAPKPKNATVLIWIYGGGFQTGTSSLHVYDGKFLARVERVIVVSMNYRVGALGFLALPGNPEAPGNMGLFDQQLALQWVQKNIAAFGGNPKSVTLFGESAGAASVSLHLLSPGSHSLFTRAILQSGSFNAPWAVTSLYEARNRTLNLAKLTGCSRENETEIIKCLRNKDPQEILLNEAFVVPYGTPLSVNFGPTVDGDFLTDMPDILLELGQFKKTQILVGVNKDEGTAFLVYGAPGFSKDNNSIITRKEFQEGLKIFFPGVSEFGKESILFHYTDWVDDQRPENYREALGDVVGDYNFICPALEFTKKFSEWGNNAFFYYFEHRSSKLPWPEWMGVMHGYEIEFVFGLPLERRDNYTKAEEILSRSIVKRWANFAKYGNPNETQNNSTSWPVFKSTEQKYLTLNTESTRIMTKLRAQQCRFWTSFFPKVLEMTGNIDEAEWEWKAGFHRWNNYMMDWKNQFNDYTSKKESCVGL
Structure (SMILES),"RM0 [1, 5]","b [1, 5]","RM0 [1, 6]","b [1, 6]","RM0 [1, 7]","b [1, 7]","RF, Methanol/Water/Hydrochloric acid (conc.), mobile phase I ([1]; RP-18 silica)","RF, Dioxane/Water/Hydrochloric acid (conc.), mobile phase II ([1]; RP-18 silica)","RF, Methanol/Water/Hydrochloric acid (conc.), mobile phase II ([1]; RP-18 silica)","RF, Acetone/Water/Hydrochloric acid (conc.), mobile phase III ([1]; RP-18 silica)","RF, Dioxane/Water/Hydrochloric acid (conc.), mobile phase III ([1]; RP-18 silica)","RF, Methanol/Water/Hydrochloric acid (conc.), mobile phase III ([1]; RP-18 silica)","RF, Dioxane/Water/Hydrochloric acid (conc.), mobile phase IV ([1]; RP-18 silica)","RF, Acetone/Water/Hydrochloric acid (conc.), mobile phase IV ([1]; RP-18 silica)","RF, Methanol/Water/Hydrochloric acid (conc.), mobile phase IV ([1]; RP-18 silica)","RF, Acetone/Water/Hydrochloric acid (conc.), mobile phase IX ([1]; RP-18 silica)","RF, Methanol/Water/Hydrochloric acid (conc.), mobile phase IX ([1]; RP-18 silica)","RF, Dioxane/Water/Hydrochloric acid (conc.), mobile phase V ([1]; RP-18 silica)","RF, Acetone/Water/Hydrochloric acid (conc.), mobile phase V ([1]; RP-18 silica)","RF, Methanol/Water/Hydrochloric acid (conc.), mobile phase V ([1]; RP-18 silica)",also measured
Clc1ccc2c(NCCCCCN(CCC34CC5CC(CC(C5)C3)C4)CCC34CC5CC(CC(C5)C3)C4)ccnc2c1 [Compound 11],3.759,4.955,2.01,2.862,5.504,5.94,0.43,0.64,0.31,0.32,0.58,0.09,0.47,0.27,0.09,0,0,0.13,0.12,0.05,"RF, Acetone/Water/Hydrochloric acid (conc.), mobile phase I ([1]; RP-18 silica, I = 80%AC/15%H2O/5%HCl): 0.58; RF, Dioxane/Water/Hydrochloric acid (conc.), mobile phase I ([1]; RP-18 silica, I = 90%Dioxane/5%H2O/5%HCl): 0.74; RF, Acetone/Water/Hydrochloric acid (conc.), mobile phase II ([1]; RP-18 silica, II = 75%AC/20%H2O/5%HCl): 0.52; RF, Dioxane/Water/Hydrochloric acid (conc.), mobile phase VI ([1]; RP-18 silica): 0; RF, Acetone/Water/Hydrochloric acid (conc.), mobile phase VI ([1]; RP-18 silica): 0.08; RF, Methanol/Water/Hydrochloric acid (conc.), mobile phase VI ([1]; RP-18 silica): 0.01; RF, Acetone/Water/Hydrochloric acid (conc.), mobile phase VII ([1]; RP-18 silica): 0; RF, Methanol/Water/Hydrochloric acid (conc.), mobile phase VII ([1]; RP-18 silica): 0; RF, Acetone/Water/Hydrochloric acid (conc.), mobile phase VIII ([1]; RP-18 silica): 0; RF, Methanol/Water/Hydrochloric acid (conc.), mobile phase VIII ([1]; RP-18 silica): 0; IS [2]: 2.5; Ki [2, 8]: 0.33 ± 0.01 µM; Ki [3, 9]: 0.82 ± 0.04 µM; FRAP ([4]; 10 µM compound): 5.3 ± 1.4 µM; FRAP ([4]; 100 µM compound): 23 ± 4 µM"
CC(CCNCC12CC3CC(CC(C3)C1)C2)Nc1ccnc2cc(Cl)ccc12 (centres unmarked) [Compound 12],1.835,3.007,0.75,1.647,2.4121,3.174,0.71,0.75,0.66,0.62,0.72,0.53,0.72,0.58,0.5,0.15,0.1,0.54,0.48,0.44,"RF, Dioxane/Water/Hydrochloric acid (conc.), mobile phase VI ([1]; RP-18 silica): 0.4; RF, Acetone/Water/Hydrochloric acid (conc.), mobile phase VI ([1]; RP-18 silica): 0.41; RF, Methanol/Water/Hydrochloric acid (conc.), mobile phase VI ([1]; RP-18 silica): 0.36; RF, Acetone/Water/Hydrochloric acid (conc.), mobile phase VII ([1]; RP-18 silica): 0.34; RF, Methanol/Water/Hydrochloric acid (conc.), mobile phase VII ([1]; RP-18 silica): 0.25; RF, Acetone/Water/Hydrochloric acid (conc.), mobile phase VIII ([1]; RP-18 silica): 0.29; RF, Methanol/Water/Hydrochloric acid (conc.), mobile phase VIII ([1]; RP-18 silica): 0.18; IS [2]: 2.1; Ki [2, 10]: 0.56 µM; Ki [2, 8]: 0.56 ± 0.02 µM; Ki ([3]; Ki BChE, ± standard error, 25 °C, ATCh substrate): 1.2 ± 0.1 µM; FRAP ([4]; 10 µM compound): 24.2 ± 0.0 µM; FRAP ([4]; 100 µM compound): 37 ± 7 µM"
CC(CCNCC12CC3CC(CC(C3)C1)C2)Nc1ccnc2cc(C(F)(F)F)ccc12 (centres unmarked) [Compound 13],2.073,3.206,0.9361,1.847,2.626,3.42,0.72,0.73,0.66,0.56,0.7,0.5,0.7,0.52,0.49,0.1,0.09,0.5,0.4,0.42,"RF, Dioxane/Water/Hydrochloric acid (conc.), mobile phase VI ([1]; RP-18 silica): 0.33; RF, Acetone/Water/Hydrochloric acid (conc.), mobile phase VI ([1]; RP-18 silica): 0.34; RF, Methanol/Water/Hydrochloric acid (conc.), mobile phase VI ([1]; RP-18 silica): 0.34; RF, Acetone/Water/Hydrochloric acid (conc.), mobile phase VII ([1]; RP-18 silica): 0.3; RF, Methanol/Water/Hydrochloric acid (conc.), mobile phase VII ([1]; RP-18 silica): 0.22; RF, Acetone/Water/Hydrochloric acid (conc.), mobile phase VIII ([1]; RP-18 silica): 0.23; RF, Methanol/Water/Hydrochloric acid (conc.), mobile phase VIII ([1]; RP-18 silica): 0.14; Ki [2, 10]: 0.91 µM; Ki [2, 8]: 0.91 ± 0.05 µM; Ki ([3]; logarithm of Ki in µM, BChE, dependent variable of the QSAR model, read-out: Y Measured 2 log(ki)Bche, log (Ki/µM BChE) (converted)): 1.4 µM; Ki [3, 9]: 1.8 ± 0.3 µM; FRAP ([4]; 10 µM compound): 19 ± 7 µM; FRAP ([4]; 100 µM compound): 64 ± 5 µM"
CC(CCNCCC12CC3CC(CC(C3)C1)C2)Nc1ccnc2cc(Cl)ccc12 (centres unmarked) [Compound 14],2.236,3.396,1.306,2.3979,3.293,4.124,0.67,0.78,0.62,0.53,0.69,0.45,0.66,0.5,0.42,0.08,0.03,0.45,0.38,0.34,"RF, Dioxane/Water/Hydrochloric acid (conc.), mobile phase VI ([1]; RP-18 silica): 0.27; RF, Acetone/Water/Hydrochloric acid (conc.), mobile phase VI ([1]; RP-18 silica): 0.33; RF, Methanol/Water/Hydrochloric acid (conc.), mobile phase VI ([1]; RP-18 silica): 0.25; RF, Acetone/Water/Hydrochloric acid (conc.), mobile phase VII ([1]; RP-18 silica): 0.25; RF, Methanol/Water/Hydrochloric acid (conc.), mobile phase VII ([1]; RP-18 silica): 0.16; RF, Acetone/Water/Hydrochloric acid (conc.), mobile phase VIII ([1]; RP-18 silica): 0.21; RF, Methanol/Water/Hydrochloric acid (conc.), mobile phase VIII ([1]; RP-18 silica): 0.1; IS [2]: 0.1; Ki [2, 8]: 1.9 ± 0.1 µM; preference for BChE ([3]; BChE over AChE): 10 times; Ki [3, 9]: 0.15 ± 0.01 µM; FRAP ([4]; 10 µM compound): 7.6 ± 2.3 µM; FRAP ([4]; 100 µM compound): 86 ± 8 µM"
